The values that follow come from patent US12304912B2, “Fused bicyclic RAF inhibitors and methods for use thereof” (Jazz Pharmaceuticals Ireland Limited, priority 2020, dated 2025).

Data set [1] concerns RAF dimers in HCT-116 cells. Description: HCT-116 AlphaLISA SureFire pERK1/2 cellular assay (dimer). Conditions: Homo sapiens. The data set is classed as cell-based. The procedure, abridged: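 HCT-116 (KRAS G13D) cells, 30,000/well, pretreated 1 h with 1 μM Encorafenib to induce RAF dimers, washed, then dosed 1 h at 37° C with compound (10-point, top 10 μM, 1/2 log steps) in growth medium. pERK1/2 (T202/Y204) measured by AlphaLISA SureFire; absolute IC50 versus DMSO control.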
(In general: In Alpha technology, singlet oxygen from a donor bead excites a nearby acceptor bead.)

A short description of data set [2]: Plasma protein binding assay, human plasma (hPPB). The conditions noted are these: 5 μM. In kind it is in vitro ADME. The procedure, abridged: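 Equilibrium dialysis of 5 μM compound in previously frozen human or mouse plasma against phosphate buffer, 4 h at 37 °C. Both chambers quantified by LC-MS/MS; % free = (1−((PC−PF)/PC))×100.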
Data set [3] relates to constitutive ERK phosphorylation in HCT-116 cells. Description: HCT-116 AlphaLISA SureFire pERK1/2 cellular assay. In kind it is cell-based, human. The conditions noted are these: HCT116 cells, 2 hr; for IC50: Homo sapiens, HCT-116, read-out: pERK HCT116 (2 hr) Abs pIC50 (converted). The procedure, abridged: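 Cells seeded overnight (30,000/well for 2 h, 15,000/well for 24 h), then dosed in 1% FBS medium with a 10-point series from 1 μM top, 1/3 log steps, for 2 or 24 h at 37 °C. Lysates read by AlphaLISA for Thr202/Tyr204 pERK1/2; absolute IC50 versus DMSO control.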

The mark [4] stands for this setting: equilibrium dialysis 4 hours 37° C.
Where [5] appears, read: HCT-116, HCT116 cells pre-dosed with 1 μM Encorafenib, 1 hr, read-out: pERK HCT116 dimer (1 hr) pIC50 (converted).
The mark [6] stands for this setting: HCT-116, HCT116 cells, dimer, 1 hr, read-out: pERK HCT116 dimer (1 hr) plC50 (converted).
The mark [7] stands for this setting: equilibrium dialysis 4 hours at 37° C.

Where a name gives a salt, the structure may show the parent alone. Read-outs that look alike come from different tables or passages of the source. Bounds are passed on as bounds.

As for `O=C1CCc2c(Oc3ccc4c(c3)CN(c3nc(-c5ccccc5)n[nH]3)CC4)ccnc2N1` [Compound 44, 5-[[2-(3-phenyl-1H-1,2,4-triazol-5-yl)-3,4-dihydro-1H-isoquinolin-7-yl]oxy]-3,4-dihydro-1H-1,8-naphthyridin-2-one hydrochloride], the IC50 in data set [1] (HCT-116, 1 h, read-out: pERK HCT116 dimer (1 hr) pIC50 (converted)) was 288 nM; in data set [3] (absolute IC50), 537 nM. Besides, in data set [2] (setting [4]), the “hPPB (% free)” value is listed as 0.3 % free.

On to `O=C(Nc1cc(Oc2ccc3c(c2)CC(c2nc(-c4ccccc4)c[nH]2)CO3)ccn1)C1CC1` (stereo not drawn) [Compound 45, N-[4-[3-(4-phenyl-1H-imidazol-2-yl)chroman-6-yl]oxy-2-pyridyl]cyclopropanecarboxamide], for which the IC50 in data set [1] (setting [5]) was 89.1 nM; in data set [3] (absolute IC50) it was 27.5 nM. In addition, the “hPPB (% free)” value in data set [2] (setting [4]) was determined as 0.2 % free.

In the case of `O=C1CCc2c(Oc3ccc4c(c3)CN(C(=O)Nc3ccc(C(F)(F)F)cc3)CC4)ccnc2N1` [Compound 47], the IC50 in data set [1] (setting [5]) is 64.6 nM; in data set [3] (absolute IC50), 69.2 nM. In addition, in data set [2] (setting [4]), the “hPPB (% free)” value was determined as 0.7 % free.

In the case of `O=C1CCc2c(Oc3ccc4c(c3)CN(C(=O)Nc3cccc(C(F)(F)F)c3)CC4)ccnc2N1` [Compound 50], the IC50 in data set [1] (setting [5]) was 64.6 nM; in data set [3] (absolute IC50), 46.8 nM. Besides, the “hPPB (% free)” value in data set [2] (setting [4]) was found to be 1.2 % free.

For `O=C1CCc2c(Oc3ccc4c(c3)CC(c3nc(-c5ccnc(C(F)F)c5)c[nH]3)CO4)ccnc2N1` (stereo not drawn) [Compound 101, 5-[3-[4-[2-(difluoromethyl)-4-pyridyl]-1H-imidazol-2-yl]chroman-6-yl]oxy-3,4-dihydro-1H-1,8-naphthyridin-2-one], the IC50 is 63.1 nM in data set [1] (setting [6]) and 132 nM in data set [3] (Abs). Besides, the “hPPB (% free)” value in data set [2] (setting [7]) was found to be 1.6 % free.

With `O=C1CCc2c(Oc3ccc4c(c3)CC(c3nc(-c5cncc(C(F)(F)F)c5)c[nH]3)CO4)ccnc2N1` (stereo not drawn) [Compound 103, 5-[3-[4-[5-(trifluoromethyl)-3-pyridyl]-1H-imidazol-2-yl]chroman-6-yl]oxy-3,4-dihydro-1H-1,8-naphthyridin-2-one], the IC50 in data set [1] (setting [6]) is 107 nM; in data set [3] (Abs), 240 nM. In data set [2] (setting [7]), the “hPPB (% free)” value was 0.6 % free.

For the molecule `COc1cc(-c2c[nH]c(C3COc4ccc(Oc5ccnc6c5CCC(=O)N6)cc4C3)n2)ccn1` (stereo not drawn) [Compound 104], the IC50 in data set [1] (setting [6]) was 347 nM. In addition, the “hPPB (% free)” value in data set [2] (setting [7]) was 1.9 % free. In addition, in data set [3] (Abs), the “pERK HCT116 (2 hr) Abs pIC50” value came out at 6.50.

For `O=C1CCc2c(Oc3ccc4c(c3)CC(c3nc(-c5cncc(C(F)F)c5)c[nH]3)CO4)ccnc2N1` (stereo not drawn) [Compound 105, 5-[3-[4-[5-(difluoromethyl)-3-pyridyl]-1H-imidazol-2-yl]chroman-6-yl]oxy-3,4-dihydro-1H-1,8-naphthyridin-2-one], the IC50 was 64.6 nM in data set [1] (setting [6]) and 178 nM in data set [3] (Abs). Further, the “hPPB (% free)” value in data set [2] (setting [7]) is recorded as 1.0 % free.

Consider `Cc1cc(-c2c[nH]c(C3COc4ccc(Oc5ccnc6c5CCC(=O)N6)cc4C3)n2)n(C)n1` (stereo not drawn) [Compound 106, 5-[3-[4-(2,5-dimethylpyrazol-3-yl)-1H-imidazol-2-yl]chroman-6-yl]oxy-3,4-dihydro-1H-1,8-naphthyridin-2-one], for which the IC50 was 123 nM in data set [1] (setting [6]) and 275 nM in data set [3] (Abs). Besides, the “hPPB (% free)” value in data set [2] (setting [7]) was found to be 2.4 % free.

Take `Cn1nc(C(F)(F)F)cc1-c1c[nH]c(C2COc3ccc(Oc4ccnc5c4CCC(=O)N5)cc3C2)n1` (stereo not drawn) [Compound 107, 5-[3-[4-[2-methyl-5-(trifluoromethyl)pyrazol-3-yl]-1H-imidazol-2-yl]chroman-6-yl]oxy-3,4-dihydro-1H-1,8-naphthyridin-2-one]: the IC50 is 57.5 nM in data set [1] (setting [6]) and 191 nM in data set [3] (Abs). Also, in data set [2] (setting [7]), the “hPPB (% free)” value is reported as 0.7 % free.

Regarding `Cc1ccc(-c2c[nH]c(C3COc4ccc(Oc5ccnc6c5CCC(=O)N6)cc4C3)n2)s1` (stereo not drawn) [Compound 110], the IC50 is 50.1 nM in data set [1] (setting [6]) and 89.1 nM in data set [3] (Abs). Moreover, in data set [2] (setting [7]), the “hPPB (% free)” value is on record as 0.2 % free.

In the case of `CCc1cc(-c2c[nH]c(C3COc4ccc(Oc5ccnc6c5CCC(=O)N6)cc4C3)n2)n(C)n1` (stereo not drawn) [Compound 111], the IC50 in data set [1] (setting [6]) is 107 nM; in data set [3] (Abs) it was 219 nM. In addition, the “hPPB (% free)” value in data set [2] (setting [7]) turned out to be 1.91 % free.

In the case of `Cc1cc(-c2c[nH]c(C3COc4ccc(Oc5ccnc6c5CCC(=O)N6)cc4C3)n2)n(C(C)C)n1` (stereo not drawn) [Compound 112, 5-[3-[4-(2-isopropyl-5-methyl-pyrazol-3-yl)-1H-imidazol-2-yl]chroman-6-yl]oxy-3,4-dihydro-1H-1,8-naphthyridin-2-one], the IC50 was 257 nM in data set [1] (setting [6]) and above 1000 nM in data set [3] (Abs). In addition, the “hPPB (% free)” value in data set [2] (setting [7]) amounted to 1.4 % free.

Consider `CCc1cc(-c2c[nH]c(C3COc4ccc(Oc5ccnc6c5CCC(=O)N6)cc4C3)n2)n(C2CC2)n1` (stereo not drawn) [Compound 113, 5-[3-[4-(2-cyclopropyl-5-ethyl-pyrazol-3-yl)-1H-imidazol-2-yl]chroman-6-yl]oxy-3,4-dihydro-1H-1,8-naphthyridin-2-one], for which the figures for the IC50 in data set [1] (setting [6]) and in data set [3] (Abs) were 513 nM and above 1000 nM, respectively. The “hPPB (% free)” value in data set [2] (setting [7]) is 0.6 % free.

With `Cc1cc(-c2c[nH]c(C3COc4ccc(Oc5ccnc6c5CCC(=O)N6)cc4C3)n2)n(C2CC2)n1` (stereo not drawn) [Compound 114, 5-[3-[4-(2-cyclopropyl-5-methyl-pyrazol-3-yl)-1H-imidazol-2-yl]chroman-6-yl]oxy-3,4-dihydro-1H-1,8-naphthyridin-2-one], the figures for the IC50 in data set [1] (setting [6]) and in data set [3] (Abs) were 363 nM and above 1000 nM, respectively. Moreover, the “hPPB (% free)” value in data set [2] (setting [7]) is 1.2 % free.

With `CC(C)(C)CCc1c[nH]c(C2COc3ccc(Oc4ccnc5c4CCC(=O)N5)cc3C2)n1` (stereo not drawn) [Compound 115, 5-[3-[4-(3,3-dimethylbutyl)-1H-imidazol-2-yl]chroman-6-yl]oxy-3,4-dihydro-1H-1,8-naphthyridin-2-one], the IC50 in data set [1] (setting [6]) is 105 nM; in data set [3] (Abs), 45.7 nM. For the same molecule, in data set [2] (setting [7]), the “hPPB (% free)” value was 0.3 % free.

Turning to `CC(C)CCc1c[nH]c(C2COc3ccc(Oc4ccnc5c4CCC(=O)N5)cc3C2)n1` (stereo not drawn) [Compound 116], the IC50 in data set [1] (setting [6]) is 87.1 nM; in data set [3] (Abs) it was 67.6 nM. The “hPPB (% free)” value in data set [2] (setting [7]) is recorded as 0.13 % free.

For `Cc1cc(-c2c[nH]c(C3COc4ccc(Oc5ccnc6c5CCC(=O)N6)cc4C3)n2)ccn1` (stereo not drawn) [Compound 117, 5-[3-[4-(2-methyl-4-pyridyl)-1H-imidazol-2-yl]chroman-6-yl]oxy-3,4-dihydro-1H-1,8-naphthyridin-2-one], the IC50 was 110 nM in data set [1] (setting [6]) and 107 nM in data set [3] (Abs). For the same molecule, the “hPPB (% free)” value in data set [2] (setting [7]) was determined as 2.6 % free.

Take `CCc1cc(-c2c[nH]c(C3COc4ccc(Oc5ccnc6c5CCC(=O)N6)cc4C3)n2)ccn1` (stereo not drawn) [Compound 118, 5-[3-[4-(2-ethyl-4-pyridyl)-1H-imidazol-2-yl]chroman-6-yl]oxy-3,4-dihydro-1H-1,8-naphthyridin-2-one]: the IC50 in data set [1] (setting [6]) is 148 nM; in data set [3] (Abs) it was 269 nM. For the same molecule, in data set [2] (setting [7]), the “hPPB (% free)” value is given as 1.3 % free.

Take `COc1csc(-c2c[nH]c(C3COc4ccc(Oc5ccnc6c5CCC(=O)N6)cc4C3)n2)c1` (stereo not drawn) [Compound 122, 5-[3-[5-(4-methoxy-2-thienyl)-1H-imidazol-2-yl]chroman-6-yl]oxy-3,4-dihydro-1H-1,8-naphthyridin-2-one]: the values for the IC50 in data set [1] (setting [6]) and in data set [3] (Abs) were 162 nM and 132 nM, respectively. Further, the “hPPB (% free)” value in data set [2] (setting [7]) is 0.23 % free.

`COc1ccsc1-c1c[nH]c(C2COc3ccc(Oc4ccnc5c4CCC(=O)N5)cc3C2)n1` (stereo not drawn) [Compound 123]: the IC50 in data set [1] (setting [6]) is 58.9 nM; in data set [3] (Abs), 63.1 nM. Moreover, the “hPPB (% free)” value in data set [2] (setting [7]) amounted to 0.23 % free.

As for `CCn1nc(C)cc1-c1c[nH]c(C2COc3ccc(Oc4ccnc5c4CCC(=O)N5)cc3C2)n1` (stereo not drawn) [Compound 124, 5-[3-[4-(2-ethyl-5-methyl-pyrazol-3-yl)-1H-imidazol-2-yl]chroman-6-yl]oxy-3,4-dihydro-1H-1,8-naphthyridin-2-one], the IC50 is 269 nM in data set [1] (setting [6]) and 347 nM in data set [3] (Abs). For the same molecule, in data set [2] (setting [7]), the “hPPB (% free)” value worked out at 2.7 % free.

Take `Cc1cc(-c2c[nH]c(C3COc4ccc(Oc5ccnc6c5CCC(=O)N6)cc4C3)n2)n(CC(F)(F)F)n1` (stereo not drawn) [Compound 126, 5-[3-[4-[5-methyl-2-(2,2,2-trifluoroethyl)pyrazol-3-yl]-1H-imidazol-2-yl]chroman-6-yl]oxy-3,4-dihydro-1H-1,8-naphthyridin-2-one]: the IC50 in data set [1] (setting [6]) was 245 nM; in data set [3] (Abs), 501 nM. For the same molecule, the “hPPB (% free)” value in data set [2] (setting [7]) was 1.0 % free.

Consider `O=C1CCc2c(Oc3ccc4c(c3)CC(c3nc(-c5ccc(C(F)(F)F)nc5)c[nH]3)CO4)ccnc2N1` (stereo not drawn) [Compound 127, 5-[3-[4-[6-(trifluoromethyl)-3-pyridyl]-1H-imidazol-2-yl]chroman-6-yl]oxy-3,4-dihydro-1H-1,8-naphthyridin-2-one], for which the IC50 in data set [1] (setting [6]) is 158 nM; in data set [3] (Abs), 417 nM. Further, the “hPPB (% free)” value in data set [2] (setting [7]) was 0.6 % free.
